Results as given in PMC6981454, “Promising 2,6,9-Trisubstituted Purine Derivatives for Anticancer Compounds: Synthesis, 3D-QSAR, and Preliminary Biological Assays” (International Journal of Molecular Sciences, 2019).
Like-named read-outs stand apart in the source and are kept apart here.

Key:
CFPAC-1 = test: MTT cytotoxicity assay, 72 h; assay type: cell-based, human; settings: Homo sapiens, CFPAC-1, IC50 ± SD
Experimental: (§1) In our study, the human cancer cell lines used were CFAPC- 1 (pancreatic adenocarcinoma); NCI-H460 (large cell lung); HL-60 (acute promyelocytic leukaemia); CACO2 (colorectal adenocarcinoma); HCT-116 (colorectal carcinoma); K562 (chronic myeloid leukaemia); MCF-7 (breast adenocarcinoma); and MRC-5 control cells (normal fibroblasts).
(§2) CFAPC-1, NCI-H460 H1975, HL-60, HCT-116, CACO2, K562, MCF-7, and MCR-5 were grown and maintained in RPMI 1640 and DMEM F12 as appropriate with 10% fetal bovine serum, 100 UI/mL penicillin–streptomycin, and cultured al 37 °C in 5% CO2 humidified atmosphere. Control cultures were treated with dimethyl sulfoxide (1%) alone at the same concentration as in the purine derivatives treatment. Cell viability was determined by trypan blue dye exclusion. Cell numbers were counted in hemocytometer by light microscopy.
(§3) Cytotoxicity assays were performed by using the MTT reduction method as described in the literature. Briefly, cancer cell lines were plated in a flat-bottom 96-wells plate at 1 × 10^4 cells per well density. Then, the cells were incubated with synthetized compounds at different concentrations (from 0.1 to 100 µM) in 200 µL of 10% fetal bovine serum-RPMI or EMEM culture medium at 37 °C for 72 h. Then, 10 µL of MTT was added at a final concentration of 0.5 mg/mL, incubated at 37 °C for 4 h, and then solubilized with 10% sodium dodecyl sulphate (SDS) in 0.1 mM HCl and incubated overnight at 37 °C. Formazan formation was measured at 570 nm in a multi-well reader (StatFax 4200).

HCT-116 = test: MTT cytotoxicity assay, 72 h; assay type: cell-based, human; settings: Homo sapiens, HCT-116, IC50 ± SD
Experimental: as §1, §2, §3

HL-60 = test: MTT cytotoxicity assay, 72 h; assay type: cell-based, human; settings: for IC50: Homo sapiens
Experimental: as §1, §2, §3

K562 = test: MTT cytotoxicity assay, 72 h; assay type: cell-based, human
Experimental: as §1, §2, §3

MCF-7 = test: MTT cytotoxicity assay, 72 h; assay type: cell-based, human
Experimental: as §1, §2, §3

NCI-H460 = test: MTT cytotoxicity assay, 72 h; assay type: cell-based, human
Experimental: as §1, §2, §3

CACO2 = test: MTT cytotoxicity assay, 72 h; assay type: cell-based, human; settings: Homo sapiens, Caco-2, IC50 ± SD
Experimental: Cytotoxicity assays were performed by using the MTT reduction method as described in the literature [23, 37]. Briefly, cancer cell lines were plated in a flat-bottom 96-wells plate at 1 × 10^4 cells per well density. Then, the cells were incubated with synthetized compounds at different concentrations (from 0.1 to 100 µM) in 200 µL of 10% fetal bovine serum-RPMI or EMEM culture medium at 37 °C for 72 h. Then, 10 µL of MTT was added at a final concentration of 0.5 mg/mL, incubated at 37 °C for 4 h, and then solubilized with 10% sodium dodecyl sulphate (SDS) in 0.1 mM HCl and incubated overnight at 37 °C. Formazan formation was measured at 570 nm in a multi-well reader (StatFax 4200).

MRC-5 = test: MTT cytotoxicity assay, 72 h, normal control cells; assay type: cell-based, human; settings: Homo sapiens, MRC5, IC50 ± SD, normal fibroblasts
Experimental: as §1, §2, §3

HL-60 cells = test: Cell viability by propidium iodide flow cytometry; assay type: cell-based, human; settings: HL-60, 50 μM, 24 h, PI staining
Text: Next, in order to determinate the cell death type induced by the most promising compounds, we performed a flow cytometry analysis of cell viability in cell line HL-60 treated with the most promising compounds (selected according to their IC50 values and SI). The HL-60 cancer cells were chosen due to their sensitivity to prepared compounds. […] As a preliminary apoptosis filter, propidium iodide (PI) staining was used through flow cytometry analysis which discriminated a population of viable cells impermeable to PI (PI negative) from necrotic cells PI-permeable (PI positive) and apoptotic cells (the difference of the previous two). The results are shown in Figure 7, illustrating that all purine derivatives tested induced apoptosis on HL-60 cells. Around 40% of apoptotic cells were detected in a culture treated with compounds 7a and 7i, 30% by 7e, 7g, and 7h and 70% by 7d and 7j. […] (For dot plots, see Supplementary Information Figures S1–S3.)
Cell viability was analyzed by flow cytometry as previously described. In this assay, after setting the baseline to exclude cell debris, cells impermeable to propidium iodide (PI negative) are considered as viable. Two populations of PI-permeable dead cells are distinguished based on fluorescence intensity, corresponding to either hypodiploid apoptotic cells or necrotic cells with intact DNA. Here, HL60 cells were incubated with concentrations of 50 µM of each compound for 24 h at 37 °C. Cells were harvested and stained with 10 µg/mL of propidium iodide to determine cell viability. Samples containing roughly 1 × 10^4 cells were evaluated by flow cytometry (FACScanto II; Becton Dickinson, Mountain View, CA) and analyzed using FCS Express v6 software. Three independent biological replicates were performed.

pERK1/2 = test: Western blotting of pERK1/2 in MCF-7 cells; assay type: cell-based, human; settings: 10 µM, 1 h
Experimental: Cell lysates were prepared by harvesting cells in Laemmli sample buffer. Proteins were separated on SDS polyacrylamide gels and electroblotted onto nitrocellulose membranes. After blocking, the membranes were incubated with specific primary antibodies overnight, washed, and then incubated with peroxidase-conjugated secondary antibodies. Finally, peroxidase activity was detected with SuperSignal West Pico reagents (Thermo Scientific, Waltham, MA, USA) using a CCD camera LAS-4000 (Fujifilm). Specific antibodies were purchased from Sigma-Aldrich (anti-α-tubulin, clone DM1A; peroxidase-labeled secondary antibodies) and Cell Signaling (anti-PARP, clone 46D11; anti-ERK1/2; anti-phospho-ERK1/2 T202/Y204).

MCF7 cells = test: Cell cycle distribution of MCF7 cells; assay type: cell-based, human; settings: Figure S5
cancer cell lines = settings: cited from earlier work
p53 = test: p53-dependent transcriptional activity reporter assay (β-galactosidase) in Arn-8 cells; assay type: cell-based, human; settings: Arn-8 cells, 24 h incubation, Table S3, control compound
Experimental: Table S3. Results of p53 activity of compounds 4a-u and 7a-j.
Compound fold p53 activity […]
p53-dependent transcriptional activity
To measure p53-dependent transcriptional activity, -galactosidase activity was determined in the human melanoma cell line Arn-8, stably transfected with a p53-responsive reporter construct pRGC foslacZ as described before. After 24 h incubation with the inhibitors, the cells were permeabilized with 0.3% Triton X-100 for 15 min, and then 4-methylumbelliferon-ß-D-galactopyranoside was added as a substrate to a final concentration of 80 µM. […]
fluorescence was measured at 355/460 nm (ex/em) with a Fluoroskan Ascent microplate reader […]
Figure S6. Dose-response effect of roscovitine on p53 activity in ARN8 cells (control experiment).
(1 picture or pasted object on this page, not shown here)

[1] = target: Hedgehog (Hh) signaling pathway; set-up: method as in PMID 24923765; settings: cited from earlier work

SMILES: Clc1ccc(N2CCN(c3nc(Cl)nc4c3ncn4C3CCCC3)CC2)cc1 [7g, 2-Chloro-6-(4-(4-chlorophenyl)piperazin-1-yl)-9-cyclopentyl-9H-purine]
- IC50 (CFPAC-1): > 100000 nM
- IC50 (HCT-116): > 50000 nM
- IC50 (HL-60; HL-60, 72 h, MTT, 72 h, IC50 ± SD, read-out: IC50 HL-60): 300 ± 60 nM
- IC50 (HL-60; HL-60, -logIC50 in molar concentration, Table S1, read-out: Experimental pIC50 (HL-60) (converted)): 300 nM
- Selectivity Index (SI) MRC-5/HL-60 (HL-60; IC50 in MRC-5 / IC50 in HL-60): 8.5
- IC50 (K562; Homo sapiens, K562, 72 h, MTT, 72 h, IC50 ± SD): 710 ± 70 nM
- Selectivity Index (SI) MRC-5/K562 (K562; IC50 in MRC-5 / IC50 in K562): 3.6
- IC50 (MCF-7; Homo sapiens, MCF7, 72 h, MTT, 72 h, IC50 ± SD): 970 ± 70 nM
- Selectivity Index (SI) MRC-5/MCF-7 (MCF-7; IC50 in MRC-5 / IC50 in MCF-7): 2.6
- IC50 (NCI-H460; Homo sapiens, NCI-H460, 72 h, MTT, 72 h, IC50 ± SD, read-out: IC50 NCI-H460): 2200 nM
- IC50 (NCI-H460; Homo sapiens, NCI-H460, -logIC50 in molar concentration, Table S2, read-out: Experimental pIC50 (NCI-H460) (converted)): 2210 nM
- Selectivity Index (SI) MRC-5/NCI-H460 (NCI-H460; IC50 in MRC-5 / IC50 in NCI-H460): 1.1
- IC50 (NCI-H460; MTT, 72 h, IC50 ± SD, read-out: IC50 NCI-H460): 2210 ± 30 nM
- IC50 (CACO2): > 100000 nM
- IC50 (MRC-5): 2540 ± 170 nM
- apoptotic cells (HL-60 cells): ~30%
- level of mitogenic transducer pERK1/2 (pERK1/2): potently reduced
- population of MCF7 cells in the G1-phase (MCF7 cells): slightly increased

SMILES: OC[C@H]1O[C@@H](n2cnc3c(N4CCN(c5ccc(C(F)(F)F)cc5)CC4)nc(Cl)nc32)[C@H](O)[C@@H]1O [II]
- IC50 on some cancer cell lines (cancer cell lines): sub-micromolar

SMILES: FC(F)(F)c1ccc(N2CCN(c3ncnc4c3ncn4C3CCCC3)CC2)cc1 [I]
- IC50 on some cancer cell lines (cancer cell lines): sub-micromolar

SMILES: CC[C@H](CO)Nc1nc(NCc2ccccc2)c2ncn(C(C)C)c2n1 [Roscovitine, reference compound]
- fold p53 activity (p53): 33.9

SMILES: CCNCc1ccc(C)c(NC(=O)c2ccc(Nc3nc(-c4ccc(OC(F)(F)F)cc4)c4ncn(C)c4n3)cc2)c1 [V]
- IC50 in Gli-luciferase reporter assay [1]: nanomolar scale
